Legend:
[1] = Transdermal delivery of a small molecule compound (summary); type: in vitro ADME; set-up: key: 0: on a scale using +symbols to reflect extent of the effect; −: on a scale using +symbols to reflect extent of the effect; +/−: on a scale using +symbols to reflect extent of the effect; on a scale using +symbols to reflect extent of the effect; ++: on a scale using +symbols to reflect extent of the effect; +++: on a scale using +symbols to reflect extent of the effect; ++++: on a scale using +symbols to reflect extent of the effect; +++++: on a scale using +symbols to reflect extent of the effect; details: compound of less than about 850 Da, hyaluronic acid decoy
Text: (§1) It will be appreciated that Examples 1-6, 11, 12 illustrate hyaluronic acid as a decoy molecule exemplary of the decoy molecules contemplated herein. As described above, decoy molecules of collagen and elastin are contemplated, where the molecular weight of the decoy molecule can be selected to tailor the delivery of the agent of interest across the skin. The table below summarizes the effect of the decoy molecule (using the hyaluronic acid as exemplary) on the transdermal delivery of a small molecule compound (e.g, one with a molecular weight of less than about 850 Da), on the transdermal delivery of a macromolecule compound (e.g, a peptide or a protein), on the extent of penetration of the decoy molecule into skin upon topical application, and on the enhancement of water content in skin by the decoy molecule, on a scale using +symbols to reflect extent of the effect.

[2] = Transdermal delivery of a macromolecule compound (summary); type: in vitro ADME; set-up: key: 0: on a scale using +symbols to reflect extent of the effect; −: on a scale using +symbols to reflect extent of the effect; +/−: on a scale using +symbols to reflect extent of the effect; on a scale using +symbols to reflect extent of the effect; ++: on a scale using +symbols to reflect extent of the effect; +++: on a scale using +symbols to reflect extent of the effect; ++++: on a scale using +symbols to reflect extent of the effect; +++++: on a scale using +symbols to reflect extent of the effect; details: peptide or protein, hyaluronic acid decoy
Text: as §1

[3] = Penetration of the decoy molecule into skin upon topical application (summary); type: in vitro ADME; set-up: key: 0: on a scale using +symbols to reflect extent of the effect; −: on a scale using +symbols to reflect extent of the effect; +/−: on a scale using +symbols to reflect extent of the effect; on a scale using +symbols to reflect extent of the effect; ++: on a scale using +symbols to reflect extent of the effect; +++: on a scale using +symbols to reflect extent of the effect; ++++: on a scale using +symbols to reflect extent of the effect; +++++: on a scale using +symbols to reflect extent of the effect
Text: as §1

[4] = 1 wt. % minocycline, 1% hyaluronic acid decoy or none, p=0.0004
Protocol: Delivery of minocycline into porcine skin in vitro was measured and compared to delivery of minocycline from a composition of minocycline in saline (i.e, with no decoy molecule). Compositions were prepared containing of 1 wt. % minocycline and 1% of decoy molecule of hyaluronic acid with three molecular weights: 10,000 Da mean, 20,000 Da mean, and 30,000 Da mean. A control formulation containing 1 wt % minocycline in saline was also prepared

[5] = Gabapentin delivery into porcine skin grafts, UPLC-mass spectrometer; type: in vitro ADME; details: 1% gabapentin in saline, 12-20 hours
Protocol: Delivery of gabapentin with hyaluronic acid into skin in vitro was measured using porcine skin grafts, and compared to delivery of gabapentin from a composition of gabapentin in saline (with no decoy molecule). Groups consisted of A) 1% gabapentin in saline (n=8 replicates), B) 1% gabapentin plus 1% sodium hyaluronate decoy of 3,000 Da in saline (n=8 replicates) or C) saline alone (n=8 replicates) in donor cells.
Briefly, tissues were incubated overnight in 0.5 mL of 50% acetonitrile in deionized water at 55° C. with agitation. Calibration standards and tissue extraction solvent samples were diluted 10× in deionized water before analysis. Diluted standards and samples were analyzed at 1 μL injection volumes. Concentrations were reported as μg/g of gabapentin in tissue.

[6] = listed as disaccharide (400 Da)

Compound: hyaluronic acid [Hyaluronic Acid 20,000 Da]
- Delivery of a Small Molecule Compound ([1]; listed as 20,000 Da): ++++
- Delivery of a Macromolecule Compound ([2]; listed as 20,000 Da): +++++
- Hyaluronic Acid Skin Penetration ([3]; listed as 20,000 Da): ++

Compound: CN(C)c1ccc(O)c2c1C[C@H]1C[C@H]3[C@H](N(C)C)C(O)=C(C(N)=O)C(=O)[C@@]3(O)C(O)=C1C2=O [minocycline]
- penetration of minocycline into porcine skin [4]: low native penetration

Compound: hyaluronic acid [Hyaluronic Acid 5000 Da]
- Delivery of a Small Molecule Compound ([1]; listed as 5000 Da): +
- Delivery of a Macromolecule Compound ([2]; listed as 5000 Da): +
- Hyaluronic Acid Skin Penetration ([3]; listed as 5000 Da): +++

Compound: hyaluronic acid [Hyaluronic Acid 100,000 Da]
- Delivery of a Small Molecule Compound ([1]; listed as 100,000 Da): 0
- Delivery of a Macromolecule Compound ([2]; listed as 100,000 Da): 0
- Hyaluronic Acid Skin Penetration ([3]; listed as 100,000 Da): +/−

Compound: hyaluronic acid [Hyaluronic Acid 100,000 Da degraded]
- Delivery of a Small Molecule Compound ([1]; listed as 100,000 Da degraded): ++++
- Delivery of a Macromolecule Compound ([2]; listed as 100,000 Da degraded): +++
- Hyaluronic Acid Skin Penetration ([3]; listed as 100,000 Da degraded): +++

Compound: NCC1(CC(=O)O)CCCCC1 [gabapentin alone, gabapentin]
- gabapentin tissue levels [5]: 0.09 μg of gabapentin per gram of tissue

Compound: hyaluronic acid [Hyaluronic Acid disaccharide (400 Da)]
- Delivery of a Small Molecule Compound [1, 6]: 0
- Delivery of a Macromolecule Compound [2, 6]: 0
- Hyaluronic Acid Skin Penetration [3, 6]: +++++

Compound: hyaluronic acid [Hyaluronic Acid 3000 Da]
- Delivery of a Small Molecule Compound ([1]; listed as 3000 Da): +++
- Delivery of a Macromolecule Compound ([2]; listed as 3000 Da): +
- Hyaluronic Acid Skin Penetration ([3]; listed as 3000 Da): ++++

Compound: hyaluronic acid [Hyaluronic Acid 10,000 Da]
- Delivery of a Small Molecule Compound ([1]; listed as 10,000 Da): +++
- Delivery of a Macromolecule Compound ([2]; listed as 10,000 Da): ++
- Hyaluronic Acid Skin Penetration ([3]; listed as 10,000 Da): ++

Compound: hyaluronic acid [Hyaluronic Acid degraded 5000 Da]
- Delivery of a Small Molecule Compound ([1]; listed as degraded 5000 Da): −
- Delivery of a Macromolecule Compound ([2]; listed as degraded 5000 Da): −
- Hyaluronic Acid Skin Penetration ([3]; listed as degraded 5000 Da): ++++

— patent US20190008795A1, “COMPOSITIONS FOR TOPICAL APPLICATION OF COMPOUNDS” (Illustris Pharmaceuticals, Inc., priority 2016, published 2019)
